Assay results as given in ChEMBL document CHEMBL4130487, “A pentanoic acid derivative targeting matrix metalloproteinase-2 (MMP-2) induces apoptosis in a chronic myeloid leukemia cell line” (Eur J Med Chem, 2017).

How the values were obtained:
K562 [1] = experiment: Cell cycle arrest in human K562 cells assessed as accumulation at G2/M-phase at 2.5 uM after 24 hrs by propidium iodide staining based flow cytometry (reference value: 35.3%)
K562 [2] = experiment: Induction of apoptosis in human K562 cells assessed as early apoptotic cells at 5 uM after 48 hrs by Annexin V-FITC/propidium iodide staining based flow cytometry (reference value: 9.6%); format: functional
K562 [3] = experiment: Cell cycle arrest in human K562 cells assessed as accumulation at G1-phase at 10 uM after 48 hrs by propidium iodide staining based flow cytometry (reference value: 27.5%); format: functional
K562 [4] = experiment: Induction of apoptosis in human K562 cells assessed as late apoptotic cells at 2.5 uM after 48 hrs by Annexin V-FITC/propidium iodide staining based flow cytometry (reference value: 0.3%); format: functional

Q: Which results are given for `CCCCCNC(=O)CC[C@H](NS(=O)(=O)c1ccc([N+](=O)[O-])cc1)C(=O)O`?
A: Activity (K562 [1]): 36%; Activity (K562 [2]): 15.4%; Activity (K562 [3]): 39.8%; Activity (K562 [4]): 11.6%
